Assay results reported in PubChem BioAssay (NCI).
Values joined by “and” are separate entries in the source; they are usually repeats but may differ in a detail not shown here. Identical values can stand only once.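 Cells were grown in 96-well plates and exposed to each compound for 48 hours at five concentrations; endpoints were interpolated linearly between bracketing concentrations, or set to the highest concentration if not reached. GI50 marks 50% less growth. TGI: concentration producing complete growth inhibition.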

Assays:
Assay in all cases: inhibition of tumour cell growth, NCI panel, 48 h
[1] = system: OVCAR-8 ovarian
[2] = system: HOP-92 NSCLC
[3] = system: UACC-257 melanoma
[4] = system: KM12 colon
[5] = system: SNB-75 CNS
[6] = system: IGROV1 ovarian
[7] = system: HCT-15 colon
[8] = system: SK-MEL-5 melanoma
[9] = system: RPMI-8226 leukemia
[10] = system: NCI/ADR-RES ovarian

Row | SMILES | TGI [1] | TGI [2] | TGI [3] | TGI [4] | TGI [5] | TGI [6] | TGI [7] | TGI [8] | TGI [9] | GI50 [3] | GI50 [10] | TGI [10] | GI50 [4] | GI50 [5] | GI50 [6] | GI50 [7] | GI50 [8] | GI50 [9]
1 | NC1=NN(c2ccccc2)C(=O)C1C(=O)C(=O)Nc1ccc(Cl)c(Cl)c1 (stereo not drawn) | > 100 µM | > 100 µM | > 100 µM | > 100 µM | 85 µM | > 100 µM | > 100 µM | > 100 µM | > 100 µM |  |  |  |  |  |  |  |  | 
2 | Cc1cc(=O)n(-c2cc3cccccc-3n2)[nH]1 |  |  | 48.3 µM | 91.5 µM | 31.7 µM | 8.45 µM | 25.5 µM | 5.32 µM | 67.2 µM |  |  |  |  |  |  |  |  | 
3 | Cc1cccc(C)c1N1C(=O)C(=O)C(c2nc3ccccc3s2)/C(=N\N)C1=O (stereo not drawn) | > 100 µM | > 100 µM | > 100 µM | > 100 µM | > 100 µM | > 100 µM | > 100 µM | > 100 µM | > 100 µM |  |  |  |  |  |  |  |  | 
4 | CCOc1ccccc1N=Nc1c(-c2ccccc2)nn(C(=O)CC(=O)Nc2cccc(C)c2)c1-c1ccccc1 | > 100 µM | > 100 µM | > 100 µM | > 100 µM | > 100 µM | > 100 µM |  | > 100 µM | > 100 µM |  |  |  |  |  |  |  |  | 
5 | O=C(Nc1ccc(Cl)cc1Cl)OC(Cn1cncn1)c1ccc(Cl)cc1Cl (stereo not drawn) | 31.8 µM |  | 30.9 µM | 31 µM | 30.1 µM | 31.4 µM | 31.1 µM | 30.7 µM | > 100 µM |  |  |  |  |  |  |  |  | 
6 | COC(=O)C1=CC2C=CC(C1C(=O)OC)C1C(C(=O)OC)=C(C(=O)OC)C(C(=O)OC)=C(C(=O)OC)C21OC (stereo not drawn) | > 100 µM | > 100 µM | > 100 µM |  | > 100 µM | > 100 µM | > 100 µM | > 100 µM | > 100 µM |  |  |  |  |  |  |  |  | 
7 | COc1ccc(OC)c(/C=N/N=C(\N)NO)c1 | > 100 µM | 83.6 µM | > 100 µM | > 100 µM | > 100 µM | > 100 µM | > 100 µM |  |  |  |  |  |  |  |  |  |  | 
8 | CN(/N=C\c1ccnc2ccccc12)c1ccc([N+](=O)[O-])cc1 | > 100 µM | > 100 µM | > 100 µM | > 100 µM | > 100 µM | > 100 µM | > 100 µM | > 100 µM | 65.4 µM |  |  |  |  |  |  |  |  | 
9 | COC(=O)C1C(=O)O[C@@H](c2cc(OC)c(OC)cc2OC)C1C(=O)OC (mixture of isomers) | > 100 µM | > 100 µM | > 100 µM | > 100 µM | > 100 µM | > 100 µM | > 100 µM | > 100 µM | > 100 µM |  |  |  |  |  |  |  |  | 
10 | COC1(OC)C2(Cl)C(Cl)=C(Cl)C1(Cl)C1C2C2CC1(C(=O)O)c1ccccc12 (stereo not drawn) | 88.3 µM | 93.4 µM | 47.4 µM |  |  | 69.5 µM | 62.3 µM | 30.5 µM | 54.5 µM |  |  |  |  |  |  |  |  | 
11 | COC(=O)[C@@H]1Cc2c([nH]c3ccccc23)[C@H](c2ccccc2)N1 | > 100 µM | > 100 µM | > 100 µM | > 100 µM | 86.1 µM | 92 µM | 41.3 µM | 63.4 µM |  |  |  |  |  |  |  |  |  | 
12 | CNS(=O)(=O)NNS(=O)(=O)c1ccc(OC)cc1 | > 100 µM |  | > 100 µM | > 100 µM | > 100 µM | > 100 µM | > 100 µM | > 100 µM | > 100 µM |  |  |  |  |  |  |  |  | 
13 | Cc1cc(C)c(-c2noc(-c3ccc(Cl)cc3)c2C2=NCCCN2)c(C)c1 | > 100 µM |  | 40.6 µM | > 100 µM |  | > 100 µM | > 100 µM | 24.2 µM | 45.3 µM |  |  |  |  |  |  |  |  | 
14 | COc1c(-c2ccccc2)nc2ccc(Oc3ccccc3)nn12 | > 100 µM | > 100 µM | > 96.5 µM | > 100 µM | > 100 µM | > 100 µM | > 100 µM | > 63.2 µM | > 70.9 µM |  |  |  |  |  |  |  |  | 
15 | COC1OC2COC(C)(C)OC2C(OC(C)=O)C1NC(=O)N(CCCl)N=O (stereo not drawn) | > 100 µM |  | > 100 µM | > 100 µM | > 100 µM | > 100 µM | > 100 µM | > 100 µM |  |  |  |  |  |  |  |  |  | 
16 | CCCCCCCCCC[C@H](O)[C@H](O)CC[C@@H](O)[C@H]1CC[C@@H]([C@H]2CC[C@H](CCCCCCC[C@@H](O)CC3=C[C@H](C)OC3=O)O2)O1 |  |  | > 100 µM | > 100 µM | 98.2 µM |  | > 100 µM | 3.46 µM and 15.9 µM | 50.4 µM | 9.51 µM | 18.2 µM | > 100 µM | 27.7 µM | 25.8 µM | 25.8 µM | 23.8 µM | 0.0863 µM | 16.6 µM
17 | Cc1nc2c(o1)C(=Nc1ccccc1)c1nc(C)oc1C2=Nc1ccccc1 | 34.3 µM | 44.1 µM | 97.6 µM |  | 28.6 µM | 52.1 µM | > 100 µM | 2.34 µM | > 100 µM |  |  |  |  |  |  |  |  | 
